{"source": "patent US20110275699A1", "about": "“Treatment For Obesity And Diabetes” (University of California, priority 2010, published 2011)", "key": {"USF-1 [1]": {"test_system": "USF-1", "test": "USF-1 modifications in M059K cells containing WT DNA-PK", "type": "cell-based, human", "settings": "insulin 100 nM 30 min", "method": "(§1) C57BL/6J male mice (Jackson laboratory) were used at 7 wks of age unless specified. For fasting/feeding experiments, mice were fasted for 40 hrs and then fed a high carbohydrate, fat-free diet for indicated time periods. HepG2 cells were grown in DMEM supplemented with 10% fetal bovine serum and 100 units/ml penicillin/streptomycin. M059J and M059K were from ATCC and grown in the same medium containing 4 mg/ml glutamine. HepG2 cells were maintained in serum free media overnight prior to insulin treatment. For insulin treatment, HepG2 cells were treated with 100 nM insulin or DMSO for 30 min. 293FT cells in DMEM supplemented with 10% fetal bovine serum and 100 units/ml penicillin/streptomycin/neomycin or 293F cells in 293 Freestyle medium were transfected with expression constructs or siRNA (Santa Cruz) using lipofectamine 2000 (Invitrogen) or 293 Fectin (Invitrogen), respectively. 293 cells were treated with either control DMSO or OA at 1 uM and Taut at indicated concentrations for 2 hrs. Expression vectors for DNA-PK and mutants, HAT, HDAC9, PP1, Kus and −0.7 p53-Luc were from laboratories of Drs. Meek, Kouzarides, Zelent, Lamond, Shay and Oren respectively. siRNA for knockdown of DNA-PK is commercially available at Santa Cruz Biotechnology Inc. […]"}, "USF-1 [2]": {"test_system": "USF-1", "test": "USF-1 modifications in M059J cells lacking DNA-PKcs", "type": "cell-based, human", "settings": "insulin 100 nM 30 min", "method": "as §1"}, "PP1": {"test_system": "PP1", "test": "PP1 in nuclear extracts of HepG2 cells", "type": "cell-based", "settings": "insulin treatment vs control", "method": "as §1, with “hrs.” for “hrs. Expression vectors for DNA-PK and mutants, HAT, HDAC9, PP1, Kus and −0.7 p53-Luc were from laboratories of Drs. Meek, Kouzarides, Zelent, Lamond, Shay and Oren respectively. siRNA for knockdown of DNA-PK is commercially available at Santa Cruz Biotechnology Inc.”\n(§2) Therefore, Applicants tested the S262 phosphorylation status of USF-1 upon treatment with okadaic acid (OA), which is known to prevent dephosphorylation of DNA-PK (Douglas et al., 2001). […] Similarly, PP1 was not detected in nuclear extracts from control HepG2 cells but was increased upon insulin treatment (FIG. 3H, right panel). […]"}, "USF-1 [3]": {"test_system": "USF-1", "test": "USF-1 S262 phosphorylation/K237 acetylation in HepG2 cells with or without insulin", "type": "cell-based", "settings": "HepG2, control siRNA-transfected cells, insulin 100 nM 30 min", "method": "as §1"}, "DNA-PK [4]": {"test_system": "DNA-PK", "test": "DNA-PK phosphorylation in HepG2 cells with or without insulin", "type": "cell-based", "settings": "insulin-treated HepG2 cells vs noninsulin-treated cells", "method": "as §1, with “Drs.” for “Drs. Meek, Kouzarides, Zelent, Lamond, Shay and Oren respectively. siRNA for knockdown of DNA-PK is commercially available at Santa Cruz Biotechnology Inc.”\nDNA-PK activity is known to be regulated by phosphorylation/dephosphorylation, independent of its activation by DNA. […] DNA-PK phosphorylation was detected using phosphoserine/threonine antibodies that detect autophosphorylation at the S/TQ motifs of DNA-PK."}, "USF-1 [5]": {"test_system": "USF-1", "test": "S262 phosphorylation of USF-1 in 293 cells (IP and western blotting)", "type": "cell-based", "settings": "2 hrs", "method": "as §1\nNext S262 phosphorylation of USF-1 by DNA-PK in cultured cells was tested. […] Applicants detected higher S262 phosphorylation of USF-1 immunoprecipitated from cells overexpressing WT DNA-PK (FIG. 3B, left panel, lane 2), but not from cells expressing DNA-PK with T3950D mutation (FIG. 3B, lane 3) or control cells (FIG. 3B, lane 1). Furthermore, Applicants detected even higher S262 phosphorylation of USF-1 from cells expressing DNAPK with T3950A mutation compared to WT DNA-PK-expressing cells (FIG. 3B, middle panel, lane 3). […] WT USF-1, but not USF-1 containing S262A mutation, was detected to have higher phosphorylation upon cotransfection with DNA-PK (FIG. 3B, right panel, lanes 2 and 3). […]"}, "DNA-PK [6]": {"test_system": "DNA-PK", "test": "DNA-PK phosphorylation in treated 293 cells (western blotting)", "type": "cell-based", "settings": "2 hrs", "method": "as §1, with “hrs.” for “hrs. Expression vectors for DNA-PK and mutants, HAT, HDAC9, PP1, Kus and −0.7 p53-Luc were from laboratories of Drs. Meek, Kouzarides, Zelent, Lamond, Shay and Oren respectively. siRNA for knockdown of DNA-PK is commercially available at Santa Cruz Biotechnology Inc.”\nas §2"}, "USF-1 [7]": {"test_system": "USF-1", "test": "USF-1 interaction (IP) and recruitment of proteins to the FAS promoter (ChIP) in 293 cells", "type": "cell-based", "settings": "Taut at indicated concentrations for 2 hrs", "method": "as §1, with “Drs.” for “Drs. Meek, Kouzarides, Zelent, Lamond, Shay and Oren respectively. siRNA for knockdown of DNA-PK is commercially available at Santa Cruz Biotechnology Inc.”\nLivers from fasted or fed mice were fixed with DSG at 2 mM for 45 min at RT before formaldehyde cross-linking Soluble chromatin was quantified by absorbance at 260 nm, and equivalent amounts of input DNA were immunoprecipitated. […]"}, "USF-1 [8]": {"test_system": "USF-1", "test": "K237 acetylation of USF-1 in cells (IP and western blotting)", "type": "cell-based", "settings": "OA-treated cells vs control cells", "method": "as §1, with “respectively.” for “respectively. 293 cells were treated with either control DMSO or OA at 1 uM and Taut at indicated concentrations for 2 hrs. Expression vectors for DNA-PK and mutants, HAT, HDAC9, PP1, Kus and −0.7 p53-Luc were from laboratories of Drs. Meek, Kouzarides, Zelent, Lamond, Shay and Oren respectively. siRNA for knockdown of DNA-PK is commercially available at Santa Cruz Biotechnology Inc.”\nSince USF-1 is both phosphorylated and acetylated at nearby sites and these posttranslational modifications are critical for USF-1 function in FAS promoter activation, we tested whether an increase in S262 phosphorylation of USF-1 could affect K237 acetylation. […] Conversely, we detected a significant level of K237 acetylation of USF-1 in control cells, which was reduced in OA-treated cells (FIG. 5B, left panel, lane 2). […]"}}, "data": [{"compound": "insulin", "values": [{"measurement": "K237 acetylation of USF-1", "setting": "USF-1 [1]", "result": "increased"}, {"measurement": "S262 phosphorylation of USF-1", "setting": "USF-1 [1]", "result": "increased"}, {"measurement": "USF modifications (S262 phosphorylation, K237 acetylation)", "setting": "USF-1 [2]", "result": "did not result in any significant increase"}, {"measurement": "PP1 in nuclear extracts", "setting": "PP1", "result": "increased"}, {"measurement": "K237 acetylation of USF-1", "setting": "USF-1 [3]", "result": "markedly increased"}, {"measurement": "S262 phosphorylation of USF-1", "setting": "USF-1 [3]", "result": "markedly increased"}, {"measurement": "DNA-PK phosphorylation", "setting": "DNA-PK [4]", "result": "not detectable"}]}, {"compound": "CO[C@H]([C@H](O)CC(=O)[C@@H](C)[C@@H](O)CC[C@@H](C)[C@@H]1O[C@]2(CC[C@@H](C)[C@H](CC[C@H](C)C(C)=O)O2)CC[C@@H]1C)[C@H](OC(=O)C[C@@H](O)C1=C(C)C(=O)OC1=O)C(C)C", "note": "[Taut, tautomycin]", "values": [{"measurement": "S262 phosphorylation of USF-1", "setting": "USF-1 [5]; Taut 10 nM", "result": "decreased"}, {"measurement": "S262 phosphorylation of USF-1", "setting": "USF-1 [5]; Taut 1 uM", "result": "hardly detectable"}, {"measurement": "phosphorylated DNA-PK", "setting": "DNA-PK [6]; Taut 1 uM, vs control cells", "result": "easily detected"}, {"measurement": "USF-1 interaction and recruitment of various proteins", "setting": "USF-1 [7]", "result": "abolished"}]}, {"compound": "C=C1[C@@H](O)[C@@H]2O[C@]3(CC[C@H](/C=C/[C@@H](C)[C@@H]4CC(C)=C[C@@]5(O[C@H](C[C@@](C)(O)C(=O)O)CC[C@H]5O)O4)O3)CC[C@H]2O[C@@H]1[C@@H](O)C[C@H](C)[C@H]1O[C@@]2(CCCCO2)CC[C@H]1C", "note": "[OA, okadaic acid]", "values": [{"measurement": "K237 acetylation of USF-1", "setting": "USF-1 [8]", "result": "reduced"}, {"measurement": "S262 phosphorylation of USF-1", "setting": "USF-1 [5]; OA 1 uM, vs control DMSO", "result": "hardly detectable"}, {"measurement": "phosphorylation of DNA-PK", "setting": "DNA-PK [6]; OA 1 uM, vs control DMSO", "result": "greatly increased"}]}]}
